Legend:
barnyard grass [1] = test: Test Example 3: herbicidal effect by foliage application, Wagner pot (Table 18, symbol H); type: in vivo, barnyard grass (Echinochloa crus-galli); conditions: amount of applied herbicide 320 g/ha
Method in brief: (§1)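 Plants were sown in alluvial soil held under 0.1–0.5 cm standing water and grown 14 days in a greenhouse at 25–30 °C. An emulsifiable formulation, water-diluted to the set dose, was then sprayed onto the foliage, and effects were scored three weeks later using previously defined criteria.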

Chinese sprangletop = test: Test Example 3: herbicidal effect by foliage application, Wagner pot (Table 18, symbol D); type: in vivo, chinese sprangletop (Leptochloa chinensis); conditions: amount of applied herbicide 320 g/ha
Method in brief: as §1

rice flat sedge = test: Test Example 3: herbicidal effect by foliage application, Wagner pot (Table 18, symbol E); type: in vivo, rice flat sedge (Cyperus iria); conditions: amount of applied herbicide 320 g/ha
Method in brief: as §1

southern crabgrass [2] = test: Test Example 4: herbicidal effect by soil treatment (Table 19, symbol F); type: in vivo, southern crabgrass (Digitaria ciliaris); conditions: amount of applied herbicide 320 g/ha
Method in brief: (§2)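 In this soil treatment, the formulated compound reached the seeds only through the soil: seeds were buried about 1.5 cm deep in sterilized diluvial soil, then the diluted emulsion was sprayed over the surface. After three weeks at 25° C. to 30° C. in a greenhouse, effects were graded on criteria from an earlier test.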

green foxtail [3] = test: Test Example 4: herbicidal effect by soil treatment (Table 19, symbol G); type: in vivo, green foxtail (Setaria viridis); conditions: amount of applied herbicide 320 g/ha
Method in brief: as §2

barnyard grass [4] = test: Test Example 4: herbicidal effect by soil treatment (Table 19, symbol H); type: in vivo, barnyard grass (Echinochloa crus-galli); conditions: amount of applied herbicide 320 g/ha
Method in brief: as §2

wild oat [5] = test: Test Example 4: herbicidal effect by soil treatment (Table 19, symbol I); type: in vivo, wild oat (Avena fatua); conditions: amount of applied herbicide 320 g/ha
Method in brief: as §2

blackgrass [6] = test: Test Example 4: herbicidal effect by soil treatment (Table 19, symbol J); type: in vivo, blackgrass (Alopecurus myosuroides); conditions: amount of applied herbicide 320 g/ha
Method in brief: as §2

Italian ryegrass [7] = test: Test Example 4: herbicidal effect by soil treatment (Table 19, symbol K); type: in vivo, Italian ryegrass (Lolium multiflorum); conditions: amount of applied herbicide 320 g/ha
Method in brief: as §2

windgrass [8] = test: Test Example 4: herbicidal effect by soil treatment (Table 19, symbol L); type: in vivo, windgrass (Apera spica-venti); conditions: amount of applied herbicide 320 g/ha
Method in brief: as §2

velvetleaf [9] = test: Test Example 4: herbicidal effect by soil treatment (Table 19, symbol M); type: in vivo, velvetleaf (Abutilon theophrasti); conditions: amount of applied herbicide 320 g/ha
Method in brief: as §2

redroot pigweed [10] = test: Test Example 4: herbicidal effect by soil treatment (Table 19, symbol N); type: in vivo, redroot pigweed (Amaranthus retroflexus); conditions: amount of applied herbicide 320 g/ha
Method in brief: as §2

lambsquarters [11] = test: Test Example 4: herbicidal effect by soil treatment (Table 19, symbol O); type: in vivo, lambsquarters (Chenopodium album); conditions: amount of applied herbicide 320 g/ha
Method in brief: as §2

chickweed [12] = test: Test Example 4: herbicidal effect by soil treatment (Table 19, symbol P); type: in vivo, common chickweed (Stellaria media); conditions: amount of applied herbicide 320 g/ha
Method in brief: as §2

persian speedwell [13] = test: Test Example 4: herbicidal effect by soil treatment (Table 19, symbol R); type: in vivo, Persian speedwell (Veronica persica); conditions: amount of applied herbicide 320 g/ha
Method in brief: as §2

southern crabgrass [14] = test: Test Example 5: herbicidal effect by foliage application, plastic box (Table 20, symbol F); type: in vivo, southern crabgrass (Digitaria ciliaris); conditions: foliage application, AAH 320 g/ha, evaluated three weeks after application
Method in brief: (§3)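 Plants were sown into sterilized diluvial soil under about 1.5 cm cover and kept in a greenhouse at 25° C. to 30° C. Fourteen days on, foliage received an even spray of the diluted emulsion. Herbicidal or crop effect was judged three weeks afterwards.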

green foxtail [15] = test: Test Example 5: herbicidal effect by foliage application, plastic box (Table 20, symbol G); type: in vivo, green foxtail (Setaria viridis); conditions: foliage application, AAH 320 g/ha, evaluated three weeks after application
Method in brief: as §3

barnyard grass [16] = test: Test Example 5: herbicidal effect by foliage application, plastic box (Table 20, symbol H); type: in vivo, barnyard grass (Echinochloa crus-galli); conditions: foliage application, AAH 320 g/ha, evaluated three weeks after application
Method in brief: as §3

wild oat [17] = test: Test Example 5: herbicidal effect by foliage application, plastic box (Table 20, symbol I); type: in vivo, wild oat (Avena fatua); conditions: foliage application, AAH 320 g/ha, evaluated three weeks after application
Method in brief: as §3

blackgrass [18] = test: Test Example 5: herbicidal effect by foliage application, plastic box (Table 20, symbol J); type: in vivo, blackgrass (Alopecurus myosuroides); conditions: foliage application, AAH 320 g/ha, evaluated three weeks after application
Method in brief: as §3

Italian ryegrass [19] = test: Test Example 5: herbicidal effect by foliage application, plastic box (Table 20, symbol K); type: in vivo, Italian ryegrass (Lolium multiflorum); conditions: foliage application, AAH 320 g/ha, evaluated three weeks after application
Method in brief: as §3

windgrass [20] = test: Test Example 5: herbicidal effect by foliage application, plastic box (Table 20, symbol L); type: in vivo, windgrass (Apera spica-venti); conditions: foliage application, AAH 320 g/ha, evaluated three weeks after application
Method in brief: as §3

velvetleaf [21] = test: Test Example 5: herbicidal effect by foliage application, plastic box (Table 20, symbol M); type: in vivo, velvetleaf (Abutilon theophrasti); conditions: foliage application, AAH 320 g/ha, evaluated three weeks after application
Method in brief: as §3

redroot pigweed [22] = test: Test Example 5: herbicidal effect by foliage application, plastic box (Table 20, symbol N); type: in vivo, redroot pigweed (Amaranthus retroflexus); conditions: foliage application, AAH 320 g/ha, evaluated three weeks after application
Method in brief: as §3

lambsquarters [23] = test: Test Example 5: herbicidal effect by foliage application, plastic box (Table 20, symbol O); type: in vivo, lambsquarters (Chenopodium album); conditions: foliage application, AAH 320 g/ha, evaluated three weeks after application
Method in brief: as §3

chickweed [24] = test: Test Example 5: herbicidal effect by foliage application, plastic box (Table 20, symbol P); type: in vivo, common chickweed (Stellaria media); conditions: foliage application, AAH 320 g/ha, evaluated three weeks after application
Method in brief: as §3

persian speedwell [25] = test: Test Example 5: herbicidal effect by foliage application, plastic box (Table 20, symbol R); type: in vivo, Persian speedwell (Veronica persica); conditions: foliage application, AAH 320 g/ha, evaluated three weeks after application
Method in brief: as §3

CCn1nc(C)c(O)c(-c2c(-c3ccc(C(F)(F)F)cc3)sc3ccc(F)cc23)c1=O [2-402]
herbicidal effect on H: barnyard grass (barnyard grass [1]): 5 (Herbicidal rate of 90% or more (almost completely withered)) | herbicidal effect on D: Chinese sprangletop (Chinese sprangletop): 3 (Herbicidal rate of 40% or more and less than 70%) | herbicidal effect on E: rice flat sedge (rice flat sedge): 3 (Herbicidal rate of 40% or more and less than 70%) | herbicidal effect, F: southern crabgrass (southern crabgrass [2]): 2 (Herbicidal rate of 20% or more and less than 40%) | herbicidal effect, G: green foxtail (green foxtail [3]): 0 (Herbicidal rate of 5% or less (almost no effect)) | herbicidal effect, H: barnyard grass (barnyard grass [4]): 0 (Herbicidal rate of 5% or less (almost no effect)) | herbicidal effect, I: wild oat (wild oat [5]): 0 (Herbicidal rate of 5% or less (almost no effect)) | herbicidal effect, J: blackgrass (blackgrass [6]): 0 (Herbicidal rate of 5% or less (almost no effect)) | herbicidal effect, K: Italian ryegrass (Italian ryegrass [7]): 2 (Herbicidal rate of 20% or more and less than 40%) | herbicidal effect, L: windgrass (windgrass [8]): 2 (Herbicidal rate of 20% or more and less than 40%) | herbicidal effect, M: velvetleaf (velvetleaf [9]): 0 (Herbicidal rate of 5% or less (almost no effect)) | herbicidal effect, N: redroot pigweed (redroot pigweed [10]): 1 (Herbicidal rate of 5% or more and less than 20%) | herbicidal effect, O: lambsquarters (lambsquarters [11]): 1 (Herbicidal rate of 5% or more and less than 20%) | herbicidal effect, P: chickweed (chickweed [12]): 4 (Herbicidal rate of 70% or more and less than 90%) | herbicidal effect, R: persian speedwell (persian speedwell [13]): 5 (Herbicidal rate of 90% or more (almost completely withered)) | F: southern crabgrass, herbicidal effect (criteria 0-5) (southern crabgrass [14]): 4 (Herbicidal rate of 70% or more and less than 90%) | G: green foxtail, herbicidal effect (criteria 0-5) (green foxtail [15]): 3 (Herbicidal rate of 40% or more and less than 70%) | H: barnyard grass, herbicidal effect (criteria 0-5) (barnyard grass [16]): 5 (Herbicidal rate of 90% or more (almost completely withered)) | I: wild oat, herbicidal effect (criteria 0-5) (wild oat [17]): 4 (Herbicidal rate of 70% or more and less than 90%) | J: blackgrass, herbicidal effect (criteria 0-5) (blackgrass [18]): 5 (Herbicidal rate of 90% or more (almost completely withered)) | K: Italian ryegrass, herbicidal effect (criteria 0-5) (Italian ryegrass [19]): 5 (Herbicidal rate of 90% or more (almost completely withered)) | L: windgrass, herbicidal effect (criteria 0-5) (windgrass [20]): 5 (Herbicidal rate of 90% or more (almost completely withered)) | M: velvetleaf, herbicidal effect (criteria 0-5) (velvetleaf [21]): 4 (Herbicidal rate of 70% or more and less than 90%) | N: redroot pigweed, herbicidal effect (criteria 0-5) (redroot pigweed [22]): 4 (Herbicidal rate of 70% or more and less than 90%) | O: lambsquarters, herbicidal effect (criteria 0-5) (lambsquarters [23]): 4 (Herbicidal rate of 70% or more and less than 90%) | P: chickweed, herbicidal effect (criteria 0-5) (chickweed [24]): 5 (Herbicidal rate of 90% or more (almost completely withered)) | R: persian speedwell, herbicidal effect (criteria 0-5) (persian speedwell [25]): 5 (Herbicidal rate of 90% or more (almost completely withered))
